Columns and labels:
[1] = Acute toxicity in ICR mouse assessed as weight loss at 30 to 300 mg/kg, po measured every other day for 14 days; assay type: organism-based; conditions: in vivo, 336 h, dose 30-300 mg/kg, time 14 day
[2] = Acute toxicity in ICR mouse assessed as change in water intake at 30 to 300 mg/kg, po measured every other day for 14 days; assay type: organism-based; conditions: in vivo, 336 h, dose 30-300 mg/kg, time 14 day
[3] = Acute toxicity in ICR mouse assessed as abnormal behavior at 30 to 300 mg/kg, po measured every other day for 14 days; assay type: organism-based; conditions: in vivo, 336 h, dose 30-300 mg/kg, time 14 day
U-937 [4] = experiment: Induction of apoptosis in human U-937 cells assessed as viable cells at 1 uM incubated for 24 hrs by Annexin V FITC/PI staining based flow cytometry analysis ( Rvb = 95.2 +/- 0.4%); assay type: functional; conditions: read-out: Activity
[5] = Acute toxicity in ICR mouse assessed as change in histology of kidney at 30 to 300 mg/kg, po measured every other day for 14 days by H and E staining based assay; assay type: organism-based; conditions: in vivo, 336 h, dose 30-300 mg/kg, time 14 day
[6] = AUC(0 to t) in Sprague-Dawley rat at 1 mg/kg, iv by LC-MS analysis; assay type: ADME, organism-based; conditions: in vivo
[7] = Acute toxicity in ICR mouse assessed as change in liver weight at 30 to 300 mg/kg, po measured every other day for 14 days […]; assay type: organism-based; conditions: in vivo, 336 h, dose 30-300 mg/kg, time 14 day
CYP1A2 = target: T1, CYP1A2 (Homo sapiens, UniProt P05177); experiment: Inhibition of CYP1A2 in human liver microsomes assessed as remaining activity at 10 uM using phenacetin as substrate preincubated for 5 mins followed by NADPH generating system addition for 15 mins by LC-MS/MS method relative to control; assay type: ADME, Microsome; conditions: probe phenacetin, time 20 min, read-out: Activity
T1 sequence (P05177 whole entry): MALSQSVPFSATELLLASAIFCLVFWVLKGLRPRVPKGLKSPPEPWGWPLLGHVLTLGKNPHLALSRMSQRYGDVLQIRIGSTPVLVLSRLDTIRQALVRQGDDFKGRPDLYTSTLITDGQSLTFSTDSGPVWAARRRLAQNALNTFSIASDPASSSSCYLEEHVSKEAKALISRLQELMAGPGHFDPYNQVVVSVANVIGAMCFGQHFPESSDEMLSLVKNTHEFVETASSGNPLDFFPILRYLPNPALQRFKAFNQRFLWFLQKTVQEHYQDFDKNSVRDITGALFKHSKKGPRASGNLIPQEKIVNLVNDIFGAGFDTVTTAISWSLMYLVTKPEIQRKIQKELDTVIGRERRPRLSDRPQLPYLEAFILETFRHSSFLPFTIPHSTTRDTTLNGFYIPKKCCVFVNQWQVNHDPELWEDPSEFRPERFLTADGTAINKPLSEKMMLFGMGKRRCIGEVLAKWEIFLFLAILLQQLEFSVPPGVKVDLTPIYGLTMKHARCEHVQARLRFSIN

[8] = Half life in Sprague-Dawley rat at 1 mg/kg, po by LC-MS analysis; assay type: ADME, organism-based; conditions: in vivo
[9] = Oral bioavailability in Sprague-Dawley rat at 5 mg/kg by LC-MS analysis; assay type: ADME, organism-based; conditions: in vivo
[10] = Mean residence time in Sprague-Dawley rat at 1 mg/kg, po by LC-MS analysis; assay type: ADME, organism-based; conditions: in vivo
[11] = target: Prostaglandin G/H synthase 1 (Homo sapiens, UniProt P23219); experiment: Inhibition of COX-1 (unknown origin)
Sequence of Prostaglandin G/H synthase 1 (P23219 whole entry): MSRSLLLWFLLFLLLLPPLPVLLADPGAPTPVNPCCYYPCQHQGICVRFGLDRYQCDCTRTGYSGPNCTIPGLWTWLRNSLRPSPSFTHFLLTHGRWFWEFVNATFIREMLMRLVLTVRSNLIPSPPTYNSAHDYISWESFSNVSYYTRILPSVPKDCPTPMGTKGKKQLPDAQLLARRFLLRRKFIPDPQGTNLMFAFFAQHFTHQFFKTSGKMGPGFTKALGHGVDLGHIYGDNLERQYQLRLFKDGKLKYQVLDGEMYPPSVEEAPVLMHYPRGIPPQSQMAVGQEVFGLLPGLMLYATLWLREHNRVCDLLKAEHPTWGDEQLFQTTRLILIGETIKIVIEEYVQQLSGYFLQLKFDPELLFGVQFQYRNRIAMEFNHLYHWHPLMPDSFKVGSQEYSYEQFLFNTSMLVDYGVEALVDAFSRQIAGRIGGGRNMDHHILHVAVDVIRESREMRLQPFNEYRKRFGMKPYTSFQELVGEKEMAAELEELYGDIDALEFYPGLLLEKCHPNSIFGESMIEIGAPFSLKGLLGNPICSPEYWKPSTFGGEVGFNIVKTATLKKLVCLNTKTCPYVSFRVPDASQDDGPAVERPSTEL

[12] = Mean residence time in Sprague-Dawley rat at 1 mg/kg, iv by LC-MS analysis; assay type: ADME, organism-based; conditions: in vivo
[13] = Acute toxicity in ICR mouse assessed as change in histology of liver at 30 to 300 mg/kg, po measured every other day for 14 days by H and E staining based assay; assay type: organism-based; conditions: in vivo, 336 h, dose 30-300 mg/kg, time 14 day
[14] = Acute toxicity in ICR mouse assessed as digestive disorder at 30 to 300 mg/kg, po measured every other day for 14 days; assay type: organism-based; conditions: in vivo, 336 h, dose 30-300 mg/kg, time 14 day
[15] = Cmax in Sprague-Dawley rat at 1 mg/kg, po by LC-MS analysis; assay type: ADME, organism-based; conditions: in vivo
[16] = Cmax in Sprague-Dawley rat at 5 mg/kg, po by LC-MS analysis; assay type: ADME, organism-based; conditions: in vivo
[17] = Acute toxicity in ICR mouse assessed as change in histology of heart at 30 to 300 mg/kg, po measured every other day for 14 days by H and E staining based assay; assay type: organism-based; conditions: in vivo, 336 h, dose 30-300 mg/kg, time 14 day
[18] = target: G-protein coupled estrogen receptor 1 (Homo sapiens, UniProt Q99527); experiment: Binding affinity to human GPER by SPR method
Sequence of G-protein coupled estrogen receptor 1 (Q99527 whole entry): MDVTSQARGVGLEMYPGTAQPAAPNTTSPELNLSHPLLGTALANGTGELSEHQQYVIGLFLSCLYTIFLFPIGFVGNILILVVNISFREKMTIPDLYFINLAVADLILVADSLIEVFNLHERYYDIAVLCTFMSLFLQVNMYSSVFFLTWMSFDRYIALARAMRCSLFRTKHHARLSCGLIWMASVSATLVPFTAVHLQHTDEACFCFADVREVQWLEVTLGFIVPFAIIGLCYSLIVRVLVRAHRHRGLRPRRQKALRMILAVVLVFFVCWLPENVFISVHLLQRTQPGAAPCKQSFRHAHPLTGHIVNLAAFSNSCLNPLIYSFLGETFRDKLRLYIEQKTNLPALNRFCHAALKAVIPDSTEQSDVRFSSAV

[19] = Half life in Sprague-Dawley rat at 5 mg/kg, po by LC-MS analysis; assay type: ADME, organism-based; conditions: in vivo
CYP2C19 = CYP2C19 (Homo sapiens, UniProt P33261); experiment: Inhibition of CYP2C19 in human liver microsomes assessed as remaining activity at 10 uM using 5-mephenytoin as substrate preincubated for 5 mins followed by NADPH generating system addition for 15 mins by LC-MS/MS method relative to control; assay type: ADME, Microsome; conditions: probe 5-mephenytoin, time 20 min, read-out: Activity
Sequence of CYP2C19 (P33261 whole entry): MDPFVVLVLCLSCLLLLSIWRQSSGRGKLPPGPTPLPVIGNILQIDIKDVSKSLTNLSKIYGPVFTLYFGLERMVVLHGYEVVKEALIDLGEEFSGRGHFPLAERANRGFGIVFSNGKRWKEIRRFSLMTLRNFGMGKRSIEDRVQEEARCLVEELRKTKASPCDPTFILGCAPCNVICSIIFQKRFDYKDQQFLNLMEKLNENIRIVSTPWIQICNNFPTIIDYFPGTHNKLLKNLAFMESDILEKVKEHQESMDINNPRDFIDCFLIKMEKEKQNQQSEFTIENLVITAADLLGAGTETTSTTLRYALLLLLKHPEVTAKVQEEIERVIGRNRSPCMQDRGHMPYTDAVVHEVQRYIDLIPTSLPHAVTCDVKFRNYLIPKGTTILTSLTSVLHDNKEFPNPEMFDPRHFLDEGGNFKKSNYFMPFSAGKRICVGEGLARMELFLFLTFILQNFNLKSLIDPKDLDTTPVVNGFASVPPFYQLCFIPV

[20] = Volume of distribution at steady state in Sprague-Dawley rat at 1 mg/kg, iv by LC-MS analysis; assay type: ADME, organism-based; conditions: in vivo, read-out: Vdss
[21] = Acute toxicity in ICR mouse assessed as change in food intake at 30 to 300 mg/kg, po measured every other day for 14 days; assay type: organism-based; conditions: in vivo, 336 h, dose 30-300 mg/kg, time 14 day
[22] = Half-life in Sprague-Dawley rat at 1 mg/kg, iv by LC-MS analysis; assay type: ADME, organism-based; conditions: in vivo
CYP3A4 = CYP3A4 (Homo sapiens, UniProt P08684); experiment: Inhibition of CYP3A4 in human liver microsomes assessed as remaining activity at 10 uM using midazolam as substrate preincubated for 5 mins followed by NADPH generating system addition for 15 mins by LC-MS/MS method relative to control; assay type: ADME, Microsome; conditions: probe midazolam, time 20 min, read-out: Activity
Sequence of CYP3A4 (P08684 whole entry): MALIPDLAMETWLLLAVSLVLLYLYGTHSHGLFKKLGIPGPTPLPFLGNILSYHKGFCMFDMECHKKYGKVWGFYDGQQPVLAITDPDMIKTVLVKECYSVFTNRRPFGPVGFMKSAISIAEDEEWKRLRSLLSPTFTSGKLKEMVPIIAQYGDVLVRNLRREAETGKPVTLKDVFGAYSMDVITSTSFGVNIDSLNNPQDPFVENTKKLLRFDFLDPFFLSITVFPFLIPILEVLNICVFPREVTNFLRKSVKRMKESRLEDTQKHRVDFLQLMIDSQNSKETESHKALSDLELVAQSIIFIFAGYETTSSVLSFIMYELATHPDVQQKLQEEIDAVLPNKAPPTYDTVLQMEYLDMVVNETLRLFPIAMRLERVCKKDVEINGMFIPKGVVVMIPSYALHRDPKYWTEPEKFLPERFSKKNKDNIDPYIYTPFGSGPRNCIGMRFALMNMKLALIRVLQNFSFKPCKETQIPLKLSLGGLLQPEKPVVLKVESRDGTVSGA

[23] = Oral bioavailability in Sprague-Dawley rat at 1 mg/kg by LC-MS analysis; assay type: ADME, organism-based; conditions: in vivo
[24] = AUC(0 to t) in Sprague-Dawley rat at 1 mg/kg, po by LC-MS analysis; assay type: ADME, organism-based; conditions: in vivo
U-937 [25] = experiment: Induction of apoptosis in human U-937 cells assessed as viable cells at 10 uM incubated for 24 hrs by Annexin V FITC/PI staining based flow cytometry analysis ( Rvb = 95.2 +/- 0.4%); assay type: functional; conditions: read-out: Activity
[26] = Mean residence time in Sprague-Dawley rat at 5 mg/kg, po by LC-MS analysis; assay type: ADME, organism-based; conditions: in vivo
CYP2D6 = CYP2D6 (Homo sapiens, UniProt P10635); experiment: Inhibition of CYP2D6 in human liver microsomes assessed as remaining activity at 10 uM using dextromethorphan as substrate preincubated for 5 mins followed by NADPH generating system addition for 15 mins by LC-MS/MS method relative to control; assay type: ADME, Microsome; conditions: probe dextromethorphan, time 20 min, read-out: Activity
Sequence of CYP2D6 (P10635 whole entry): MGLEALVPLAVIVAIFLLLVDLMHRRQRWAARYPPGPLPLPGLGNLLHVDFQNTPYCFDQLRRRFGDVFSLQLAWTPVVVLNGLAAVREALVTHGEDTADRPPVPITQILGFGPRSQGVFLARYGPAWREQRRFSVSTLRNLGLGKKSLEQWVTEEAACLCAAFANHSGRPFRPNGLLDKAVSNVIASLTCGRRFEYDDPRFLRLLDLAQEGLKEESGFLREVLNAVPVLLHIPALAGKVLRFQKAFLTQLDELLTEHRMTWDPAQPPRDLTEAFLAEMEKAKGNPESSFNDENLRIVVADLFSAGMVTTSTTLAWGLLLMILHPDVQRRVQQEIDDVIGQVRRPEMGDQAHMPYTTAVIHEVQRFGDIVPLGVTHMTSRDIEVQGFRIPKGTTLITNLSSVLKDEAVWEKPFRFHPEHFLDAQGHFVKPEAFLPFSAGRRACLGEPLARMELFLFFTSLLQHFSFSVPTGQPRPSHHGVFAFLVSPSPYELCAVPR

HT-29 = experiment: Induction of apoptosis in human HT-29 cells assessed as viable cells at 1 uM incubated for 24 hrs by Annexin V FITC/PI staining based flow cytometry analysis ( Rvb = 99 +/- 0.1%); assay type: functional; conditions: read-out: Activity

SMILES: Cc1nc(NC(=O)c2sc3cc(F)ccc3c2Cl)c(C)c(C)c1O
- Activity [1]: Non-Toxic
- Activity [2]: Non-Toxic
- Activity [3]: Non-Toxic
- viability at 1 µM (U-937 [4]): 95.4%
- Activity [5]: Non-Toxic
- AUCt [6]: 10006.6 ng·h/mL
- Activity [7]: Non-Toxic
- activity at 0.25 h, 10 µM (CYP1A2): 89.2%
- half-life [8]: 3.8 h
- F [9]: 36.7%
- MRT [10]: 5.7 h
- IC50 [11]: 800 nM
- MRT [12]: 1.2 h
- Activity [13]: Non-Toxic
- Activity [14]: Non-Toxic
- Cmax [15]: 51.9 ng/mL
- Cmax [16]: 760 ng/mL
- Activity [17]: Non-Toxic
- Kd [18]: 23.7 nM
- half-life [19]: 3.3 h
- activity at 0.25 h, 10 µM (CYP2C19): 98.3%
- Vd [20]: 1.3 L/kg
- Activity [21]: Non-Toxic
- half-life [22]: 2 h
- activity at 0.25 h, 10 µM (CYP3A4): 89.9%
- F [23]: 24.5%
- AUCt [24]: 246.3 ng·h/mL
- viability at 10 µM (U-937 [25]): 95.2%
- MRT [26]: 5 h
- activity at 0.25 h, 10 µM (CYP2D6): 86%
- viability at 1 µM (HT-29): 98.8%

— ChEMBL document CHEMBL5523723, “G Protein-Coupled Estrogen Receptor-Mediated Anti-Inflammatory and Mucosal Healing Activity of a Trimethylpyridinol Analogue in Inflammatory Bowel Disease” (J Med Chem, 2024)
